According to article PMC3549755, “A comparison of the ability of rilpivirine (TMC278) and selected analogues to inhibit clinically relevant HIV-1 reverse transcriptase mutants” (Retrovirology, 2012):
Like-named read-outs stand apart in the source and are kept apart here.

Assays:
[1] = system: viral vector with K103N mutant HIV-1 RT; assay: single-round infectivity assay, luciferase reporter, K103N RT vector; assay type: cell-based; settings: Human immunodeficiency virus 1; HOS cells, reduction of luciferase reporter activity, SD in parentheses
Text: (§1) We examined the effects of rilpivirine and the analogues on HIV-1 replication using a previously described assay and report the concentrations at which luciferase reporter activity was reduced by half relative to uninhibited controls (EC50) with standard deviations in parentheses. In the assay, viral vectors that replicate using WT HIV reverse transcriptase or one of several mutants (L100I, K103N, V106A, E138K, Y181C, Y188L, H221Y and the double mutant K103N/Y181C) were used to infect cells in a single round assay. These mutants were chosen either because they are known NNRTI resistance mutations (L100I, K103N, Y181C, and the K103N/Y181C double mutant), they were selected in patients in rilpivirine clinical trials (E138K and H221Y), or they are positioned to make significant Van der Waals contacts with rilpivirine (V106A and Y188L). All compounds were initially screened against a panel that included at least one RT mutant from all three groups (WT, K103N, E138K, Y181C and Y188L). The cytotoxicity of the compounds was also determined to establish the therapeutic index of each of the compounds.
(§2) Procedures for virion production and cell-based assay have been reported. Briefly, all cell cultures were maintained in Dulbecco’s modified Eagle’s medium (Invitrogen, Carlsbad, CA) with 5% (v/v) fetal bovine serum, 5% newborn calf serum, penicillin (50 units/mL) and streptomycin (50 μg/mL) (Quality Biological, Gaithersburg, MD). […]. Transfected cells were incubated at 37°C for 8 hrs, washed twice with PBS, fresh media was added and the cells were returned to the incubator for 48 hrs. The pNLNgoMIVR^+ΔEnv.LUC plasmid encodes the HIV-1 genome with an Env deletion and either WT HIV-1 RT, or one of the following mutants: L100I, K103N, V106A, E138K, Y181C, Y188L, H221Y, or K103N/Y181C. Supernatants from each plate were clarified by low-speed centrifugation (3,000xg for 20 min), then treated with 200 U DNase I (Roche Applied Science, Mannheim, Germany) at room temperature for 3 hours. Viral supernatants were stored at −20°C until used.
(§3) One day prior to infection, 100 μL of human osteosarcoma (HOS) cells were added to each well of a 96-well plate at a density of 4x10^4 cells/mL. Plates were incubated overnight at 37°C. On the day of infection, 10X drug stocks were prepared by serial dilution in media from an initial 10 mM stock solution in DMSO. Cells in the 96-well plate were pre-treated by the addition of 22 μL of the appropriate drug stock and returned to the incubator for 3 hours. Thawed virus stocks were diluted 1:2 in media, then 100 μL of virus was added to the pre-treated cells, bringing the final drug concentrations to 0.1 nM to 100 nM, with DMSO-treated cells (no drug) serving as a reference. In addition, 12 wells of cells treated with media and no virus served as negative controls. Plates were returned to the incubator for an additional 42 hours, at which time the luciferase activity was determined using Steady-Lite Plus kits (PerkinElmer, Waltham, MA). Background luciferase activity, as measured for the negative controls, was subtracted from the activities measured for each infected well. Drug-free, DMSO-treated wells were normalized to 100% infectivity. Infectivity at each drug concentration was determined as a percentage of these drug-free infections. Drug concentration versus percent infectivity was plotted for each RT-inhibitor combination, and the data were fit to a four-parameter sigmoidal curve using KaleidaGraph 4.0 (Synergy Software, Reading, PA). The inflection point of each curve is reported as the IC50. All values are the mean of triplicate infections.

[2] = system: viral vector with E138K mutant HIV-1 RT; assay: single-round infectivity assay, luciferase reporter, E138K RT vector; assay type: cell-based; settings: for EC50: Human immunodeficiency virus 1, HOS cells, reduction of luciferase reporter activity, SD in parentheses; for loss of potency against E138K: compared with rilpivirine (1)
Text: as §1, §2, §3

[3] = system: viral vector with H221Y mutant HIV-1 RT; assay: single-round infectivity assay, luciferase reporter, H221Y RT vector; assay type: cell-based; settings: Human immunodeficiency virus 1; broader panel, SD in parentheses
Text: as §1, §2, §3

[4] = system: viral vectors that replicate using WT HIV reverse transcriptase; assay: single-round infectivity assay, luciferase reporter, vector with WT RT; assay type: cell-based, HIV-1; settings: SD in parentheses
Text: as §1, §2, §3

[5] = system: viral vector with V106A mutant HIV-1 RT; assay: single-round infectivity assay, luciferase reporter, V106A RT vector; assay type: cell-based; settings: Human immunodeficiency virus 1; broader panel, SD in parentheses
Text: as §1, §2, §3

[6] = system: viral vector with L100I mutant HIV-1 RT; assay: single-round infectivity assay, luciferase reporter, L100I RT vector; assay type: cell-based; settings: Human immunodeficiency virus 1; broader panel, SD in parentheses
Text: as §1, §2, §3

[7] = system: viral vector with Y188L mutant HIV-1 RT; assay: single-round infectivity assay, luciferase reporter, Y188L RT vector; assay type: cell-based; settings: for EC50: Human immunodeficiency virus 1, HOS cells, reduction of luciferase reporter activity, SD in parentheses
Text: as §1, §2, §3

HOS cells = assay: cytotoxicity assay (ATP-Lite cell viability); assay type: cell-based, human; settings: for Therapeutic Index (T.I.): ratio of CC50/EC50 (WT); for CC50: HOS cells, 48 hours, SD in parentheses
Description: (§4) One day prior to treatment, HOS cells were prepared in 96-well plates as described for the infectivity assays, except that 12 wells per plate were treated with cell-free media to serve as negative controls. The following day, serial dilutions of drug stocks were prepared in media from 10 mM stocks in DMSO. Each well received 11 μL of the appropriate drug concentration or DMSO-treated, drug-free media. Final drug concentrations ranged from 0.5 μM to 300 μM. The drug-free wells served as references. Plates were then incubated at 37°C for 48 hours. Cell viability was determined using luciferase reporter ATP-Lite kits (PerkinElmer). As described for the infectivity assays, drug-free reference wells were normalized to 100%, and viabilities at different drug concentrations were determined as a percentage of these references. Data were plotted and analyzed in the same manner as the IC50 data, with the inflection points of the curves reported as CC50.

[8] = cytotoxicity assay (ATP-Lite cell viability); assay type: cell-based, human; settings: human, HOS cells, 48 hours, SD in parentheses
Description: as §4

[9] = system: viral vector with K103N/Y181C double mutant HIV-1 RT; assay: single-round infectivity assay, luciferase reporter, K103N/Y181C RT vector; assay type: cell-based; settings: for EC50: Human immunodeficiency virus 1, broader panel, SD in parentheses; for fold resistance / loss of potency against K103N/Y181C double mutant: relative to WT
Text: as §1, §2, §3

[10] = system: viral vector with Y181C mutant HIV-1 RT; assay: single-round infectivity assay, luciferase reporter, Y181C RT vector; assay type: cell-based; settings: Human immunodeficiency virus 1; HOS cells, reduction of luciferase reporter activity, SD in parentheses
Text: as §1, §2, §3

[11] = Human immunodeficiency virus 1, broader panel table, read-out: EC50 WT (Table S1)

| Structure (SMILES) | EC50 [1] | EC50 [2] | loss of potency against E138K [2] | EC50 [3] | EC50 [4, 11] | EC50 [5] | EC50 [6] | EC50 [7] | Therapeutic Index (T.I.) (HOS cells) | CC50 at 48 h [8] | EC50 [9] | EC50 [10] | CC50 (HOS cells) | loss of potency against Y188L ([7]; compared with rilpivirine (1)) | EC50 ([4]; HOS cells, reduction of luciferase reporter activity, read-out: EC50 WT) | EC50 ([4]; Human immunodeficiency virus 1, HOS, HOS cells, reduction of luciferase reporter activity, read-out: EC50 WT) | fold resistance / loss of potency against K103N/Y181C double mutant [9] | EC50 fold greater than that of 7 against K103N/Y181C [9] |
| --- | --- | --- | --- | --- | --- | --- | --- | --- | --- | --- | --- | --- | --- | --- | --- | --- | --- | --- |
| Cc1cc(/C=C/C#N)cc(C)c1Nc1nc(Nc2ccc(C#N)cc2)c2nc[nH]c2n1 [Analogue 13] | 0.4 nM | 4.2 ± 0.3 nM | four- to fourteen-fold | 1.3 nM | 0.9 nM | 0.5 nM | 0.1 nM | 2 nM | 1.7x10^4 | 15000 nM | 2.9 nM | 1.4 nM | – | – | – | – | – | – |
| Cc1cc(/C=C/C#N)cc(C)c1Nc1nc(Nc2ccc(C#N)cc2)ncc1N [Analogue 7] | 0.3 nM | 1.3 nM | four- to fourteen-fold | 0.9 nM | 0.2 nM | 0.1 nM | 0.1 nM | 2.3 ± 0.1 nM | 2.5x10^5 | 50000 nM | 2.2 nM | 1.1 nM | > 38000 nM | – | – | – | – | – |
| Cc1cc(/C=C/C#N)cc(C)c1Nc1nc(Nc2ccc(C#N)cc2)nc2[nH]cnc12 [Analogue 11] | 0.1 nM | 2.9 nM | four- to fourteen-fold | 0.4 nM | 0.1 nM | 0.4 nM | < 0.1 nM | 13 ± 0.5 nM | 1.2x10^6 | – | 1.2 nM | 0.5 nM | – | nearly six-fold | – | – | – | – |
| Cc1cc(/C=C/C#N)cc(C)c1Nc1ncc2ncn(-c3ccc(C#N)cc3)c2n1 [Analogue 26] | 6.5 nM | 25 nM | – | 17 nM | 4.5 nM | 6.5 nM | 1.6 nM | 91 nM | 4.7x10^3 | 21000 nM | > 100 nM | 26 nM | – | – | – | – | – | – |
| Cc1cc(/C=C/C#N)cc(C)c1-n1cnc2cnc(Nc3ccc(C#N)cc3)nc21 [Analogue 27] | 0.4 nM | 0.7 nM | – | 0.4 nM | 0.2 nM | 0.2 nM | 0.2 nM | 9.6 ± 2.2 nM | 2.1x10^5 | 42000 nM | 72 nM | 1.5 nM | > 38000 nM | – | – | – | – | – |
| Cc1cc(/C=C/C#N)cc(C)c1Nc1ccnc(Nc2ccc(C#N)cc2)n1 [Analogue 1, rilpivirine] | 0.2 nM | 0.3 nM | – | 0.4 nM | – | 0.1 nM | < 0.1 nM | 2.3 ± 0.2 nM | 2.5x10^4 | 10000 ± 600 nM | 3.1 nM | 1.3 nM | – | – | 0.2 nM | 0.4 ± 0.02 nM | ~ 8 fold | – |
| Cc1cc(/C=C/C#N)cc(C)c1Nc1ncc([N+](=O)[O-])c(Nc2ccc(C#N)cc2)n1 [Analogue 8] | 1 nM | 4.9 nM | – | 2.6 nM | 0.9 nM | 0.3 nM | 0.2 nM | 13 nM | 1.0x10^5 | – | 86 nM | 5.3 nM | – | – | – | – | – | – |
| Cc1cc(/C=C/C#N)cc(C)c1Nc1ncc(N)c(Nc2ccc(C#N)cc2)n1 [Analogue 9] | 0.7 nM | 2.6 nM | – | 2.8 nM | 0.7 nM | 0.9 nM | 0.5 nM | 18 nM | 2.7x10^4 | 19000 nM | 47 nM | 4.6 nM | – | – | – | – | ~ 67 fold | ~ 21 fold |
| Cc1cc(/C=C/C#N)cc(C)c1Nc1nc(Nc2ccc3ncsc3c2)c2nc[nH]c2n1 [Analogue 20] | 0.1 nM | 0.8 nM | – | 1.1 nM | 0.2 nM | 2.1 nM | 0.2 nM | 19 nM | 1.0x10^4 | 2000 nM | 60 nM | 1 nM | – | – | – | – | – | – |
| Cc1cc(/C=C/C#N)cc(C)c1Nc1nc(Nc2ccc3scnc3c2)c2nc[nH]c2n1 [Analogue 21] | 0.6 nM | 1.5 nM | – | 0.6 nM | 0.1 nM | 4.6 nM | 0.6 nM | 4.4 nM | 3.8x10^5 | 38000 nM | > 100 nM | 1 nM | > 38000 nM | – | – | – | > 1000 fold | – |
| Cc1cc(/C=C/C#N)cc(C)c1Nc1nc(Nc2ccc(C#N)cc2)ncc1[N+](=O)[O-] [Analogue 6] | 0.2 nM | 1.4 nM | – | 0.4 nM | 0.2 nM | 0.1 nM | < 0.1 nM | 6.8 ± 0.5 nM | 1.2x10^5 | 24000 nM | 27 nM | 2.1 nM | – | – | – | – | – | – |
